Measurements from patent publication US20230413822A1, “ORAL CANINE FEED AND METHODS FOR C[…] INFESTATIONS IN A CANINE” (In the Bowl Animal Health, Inc., priority 2021, published 2023).

Key:
[1] = Plasma concentration of mivorilaner in dogs at various daily oral doses (Example 2); assay type: in vivo; conditions: average plasma
Excerpt: Methods: A pool of 46 dogs are to be preliminarily infested with ˜50 unfed adult R. sanguineus ticks in order to produce dogs that can suitably sustain a reliable infestation rate, defined as approximately 25% of attached ticks being live at the end of a 48-hour period. The 40 dogs with the highest live attached tick counts are to be selected for inclusion in the study. The dogs are to be randomly assigned to one of a control group and 4 treatment groups.
The dogs are to be housed individually during the study period and are to be fed a commercial dry dog food ration with ad libitum access to water.
Each dog in a treatment group (test groups 2-5) is to receive by mouth a liquid formulation of isoxazoline.
Dogs in the control group are not to receive isoxazoline or any other tick control treatment. Each dog in the treatment group is to be offered its daily ration (dry food) and the individual doses of liquid formulation are to be administered after the individual dog has eaten at least 25% of its total daily ration. After receiving the dose of isoxazoline, the dogs are to be allowed to continue eating. Each dog in treatment groups 3-5 and the control group is to be experimentally infested with 50 adult ticks on test days −2, 5, 12, 19, 28, 35 and 42. Dogs in group 2 are to be infested with 50 adult ticks on test days 19, 28 and 35. Comb counts for live adult ticks are to be conducted on days 2, 7, 14, 21, 30, 37 and 44.
Sample results of the average plasma concentration of isoxazoline in a canine's blood at different dosage levels of mivorilaner are shown in TABLE 3 and FIG. 4.

[2] = Plasma concentration of mivorilaner in dogs fed medicated daily feed (Example 6); assay type: in vivo; design: unit not given here
Excerpt: Methods: A pool of dogs are to be preliminarily infested with ˜50 unfed adult R. sanguineus ticks in order to produce dogs that can suitably sustain a reliable infestation rate, defined as approximately 25% of attached ticks being live at the end of a 72-hour period. The 24 dogs with the highest live attached tick counts are to be selected for inclusion in the study. The 18 dogs with the highest live attached tick counts are to be randomly assigned to one of a control group and 2 treatment groups. The 6 dogs with the next highest live attached tick counts are to be assigned to a third treatment group.
The dogs are to be housed individually during the study period and are to have ad libitum access to water.
Each dog in a treatment group (test groups 2-4) is to receive a medicated daily feed from study days 0-49. The medicated daily feed is to be offered to the dogs for 1 hour on each of days 0-49 according to test groups listed in TABLE 7.
Sample results of the average plasma concentration of isoxazoline in a canine's blood at different dosage levels are shown in TABLE 8 and FIG. 9 for mivorilaner.

## O=C(CNC(=O)c1sc(C2=NO[C@@](c3cc(Cl)c(F)c(Cl)c3)(C(F)(F)F)C2)c2c1CCC2)NCC(F)F [Mivorilaner, 3-[(5S)-5-(3,5-dichloro-4-fluorophenyl)-5-(trifluoromethyl)-4,5-dihydroisoxazol-3-yl]-N-[2-[(2,2-difluoroethyl)amino]-2-oxoethyl]-5,6-dihydro-4H-cyclopenta[c]thiophene-1-carboxamide]
[1]; Group 4 (0.5 mg/kg/day) oral fed, 1440 hours after initial dose
  Mivorilaner Concentration: 2298.75 ng/mL
[1]; Group 5 (1.0 mg/kg/day) oral fed, 72 hours after initial dose
  Mivorilaner Concentration: 951.25 ng/mL
[1]; Group 5 (1.0 mg/kg/day) oral fed, 120 hours after initial dose
  Mivorilaner Concentration: 1510.00 ng/mL
[1]; Group 5 (1.0 mg/kg/day) oral fed, 168 hours after initial dose
  Mivorilaner Concentration: 1793.75 ng/mL
[1]; Group 5 (1.0 mg/kg/day) oral fed, 336 hours after initial dose
  Mivorilaner Concentration: 2691.25 ng/mL
[1]; Group 5 (1.0 mg/kg/day) oral fed, 504 hours after initial dose
  Mivorilaner Concentration: 3016.25 ng/mL
[1]; Group 5 (1.0 mg/kg/day) oral fed, 720 hours after initial dose
  Mivorilaner Concentration: 3756.25 ng/mL
[1]; Group 5 (1.0 mg/kg/day) oral fed, 888 hours after initial dose
  Mivorilaner Concentration: 3861.25 ng/mL
[1]; Group 5 (1.0 mg/kg/day) oral fed, 1056 hours after initial dose
  Mivorilaner Concentration: 4263.75 ng/mL
[1]; Group 5 (1.0 mg/kg/day) oral fed, 1224 hours after initial dose
  Mivorilaner Concentration: 4838.75 ng/mL
[1]; Group 5 (1.0 mg/kg/day) oral fed, 1440 hours after initial dose
  Mivorilaner Concentration: 4142.50 ng/mL
[2]; Group 2-106 mg/kg feed (anticipated 1 mg/kg daily), Time 1 hr
  average plasma concentration of isoxazoline in a canine's blood: 49.98
[2]; Group 2-106 mg/kg feed (anticipated 1 mg/kg daily), Time 3 hr
  average plasma concentration of isoxazoline in a canine's blood: 292.00
[2]; Group 2-106 mg/kg feed (anticipated 1 mg/kg daily), Time 6 hr
  average plasma concentration of isoxazoline in a canine's blood: 539.00
[2]; Group 2-106 mg/kg feed (anticipated 1 mg/kg daily), Time 10 hr
  average plasma concentration of isoxazoline in a canine's blood: 505.40
[2]; Group 2-106 mg/kg feed (anticipated 1 mg/kg daily), Time 24 hr
  average plasma concentration of isoxazoline in a canine's blood: 458.60
[2]; Group 2-106 mg/kg feed (anticipated 1 mg/kg daily), Time 48 hr
  average plasma concentration of isoxazoline in a canine's blood: 771.83
[2]; Group 2-106 mg/kg feed (anticipated 1 mg/kg daily), Time 96 hr
  average plasma concentration of isoxazoline in a canine's blood: 1570.50
[2]; Group 2-106 mg/kg feed (anticipated 1 mg/kg daily), Time 168 hr
  average plasma concentration of isoxazoline in a canine's blood: 2156.67
[2]; Group 2-106 mg/kg feed (anticipated 1 mg/kg daily), Time 240 hr
  average plasma concentration of isoxazoline in a canine's blood: 3003.33
[2]; Group 2-106 mg/kg feed (anticipated 1 mg/kg daily), Time 336 hr
  average plasma concentration of isoxazoline in a canine's blood: 3290.00
[2]; Group 3-106 mg/kg feed (anticipated 1 mg/kg daily), Time 1 hr
  average plasma concentration of isoxazoline in a canine's blood: 40.41
[2]; Group 3-106 mg/kg feed (anticipated 1 mg/kg daily), Time 3 hr
  average plasma concentration of isoxazoline in a canine's blood: 264.83
[2]; Group 3-106 mg/kg feed (anticipated 1 mg/kg daily), Time 6 hr
  average plasma concentration of isoxazoline in a canine's blood: 467.50
[2]; Group 3-106 mg/kg feed (anticipated 1 mg/kg daily), Time 10 hr
  average plasma concentration of isoxazoline in a canine's blood: 419.17
[2]; Group 3-106 mg/kg feed (anticipated 1 mg/kg daily), Time 24 hr
  average plasma concentration of isoxazoline in a canine's blood: 435.17
[2]; Group 3-106 mg/kg feed (anticipated 1 mg/kg daily), Time 48 hr
  average plasma concentration of isoxazoline in a canine's blood: 781.83
[2]; Group 3-106 mg/kg feed (anticipated 1 mg/kg daily), Time 96 hr
  average plasma concentration of isoxazoline in a canine's blood: 1596.67
[2]; Group 3-106 mg/kg feed (anticipated 1 mg/kg daily), Time 168 hr
  average plasma concentration of isoxazoline in a canine's blood: 2406.67
[2]; Group 3-106 mg/kg feed (anticipated 1 mg/kg daily), Time 240 hr
  average plasma concentration of isoxazoline in a canine's blood: 3026.67
[2]; Group 3-106 mg/kg feed (anticipated 1 mg/kg daily), Time 336 hr
  average plasma concentration of isoxazoline in a canine's blood: 3516.67
[2]; Group 4-318 mg/kg feed (anticipated 3 mg/kg daily), Time 1 hr
  average plasma concentration of isoxazoline in a canine's blood: 143.75
[2]; Group 4-318 mg/kg feed (anticipated 3 mg/kg daily), Time 3 hr
  average plasma concentration of isoxazoline in a canine's blood: 846.50
[2]; Group 4-318 mg/kg feed (anticipated 3 mg/kg daily), Time 6 hr
  average plasma concentration of isoxazoline in a canine's blood: 1265.67
[2]; Group 4-318 mg/kg feed (anticipated 3 mg/kg daily), Time 10 hr
  average plasma concentration of isoxazoline in a canine's blood: 1198.17
[2]; Group 4-318 mg/kg feed (anticipated 3 mg/kg daily), Time 24 hr
  average plasma concentration of isoxazoline in a canine's blood: 1021.17
[2]; Group 4-318 mg/kg feed (anticipated 3 mg/kg daily), Time 48 hr
  average plasma concentration of isoxazoline in a canine's blood: 2011.67
[2]; Group 4-318 mg/kg feed (anticipated 3 mg/kg daily), Time 96 hr
  average plasma concentration of isoxazoline in a canine's blood: 3928.33
[2]; Group 4-318 mg/kg feed (anticipated 3 mg/kg daily), Time 168 hr
  average plasma concentration of isoxazoline in a canine's blood: 6461.67
[2]; Group 4-318 mg/kg feed (anticipated 3 mg/kg daily), Time 240 hr
  average plasma concentration of isoxazoline in a canine's blood: 8696.67
[2]; Group 4-318 mg/kg feed (anticipated 3 mg/kg daily), Time 336 hr
  average plasma concentration of isoxazoline in a canine's blood: 11600.00
